{"source": "patent US6858579B2", "about": "“Anti-inflammatory compounds” (William Harvey Research Limited, priority 2001, dated 2005)", "key": {"[1]": {"system": "PMN migration", "experiment": "Mouse air-pouch model, zymosan-induced PMN migration", "type": "in vivo, mice", "details": "for activity in the in vivo animal model of inflammation: mouse air-pouch model, peptide s.c., result in words; for Approximate ED50, inhibition of PMN migration: mouse air-pouch, peptide s.c. 30 min prior to 1 mg zymosan, PMN counted 4 h after zymosan, n=15, P<0.01", "method": "Male Swiss Albino mice (20-22 g body weight) were purchased from Interfauna (CFLP strain; Huntingdon, Cambridgeshire, UK) and maintained on a standard chow pellet diet with tap water ad libitum. Animals were used at least one week after arrival.\nAir-pouches were formed on the back of the mice by subcutaneous (s.c.) injection of 2.5 ml or air on day […]. Three days after the last air-injection (6-day-old air-pouches) 1 mg of zymosan (in 0.5 ml of sterile saline) was injected locally (Perretti et al., 1996). Zymosan was previously boiled for 30 min in phosphate buffered solution (PBS), extensively washed in the same medium and stored at −20° C. prior to use.\nFour hours after the local injection of zymosan, mice were killed by CO2 exposure and the air-pouches washed with 2 ml of PBS containing ethylenediaminetetracetic acid sodium salt (EDTA; 3 mM) and heparin (25 U/ml).\nLavage fluids (essentially the entire 2 ml were consistently recovered) were centrifuged at 200 g for 10 min at 4° C. and cell pellets were resuspended in 2 ml of PBS/EDTA+heparin. The number of PMN was determined, using a Neubauer haematocytometer, after staining (1:10 dilution) with Turk's solution (crystal violet 0.01% w/v in acetic acid 3% v/v).\nThe following peptides were drawn from the lipocortin 1 N-terminus region: LC12-26 (Ac-[…] (SEQ ID NO:6)), LC12-12 (Ac-AMVSEFLKQAW (SEQ ID NO:4)), LC1 13-25 (FIENEEQEYVQTV (SEQ ID NO:7)), LC12-6(Ac-AMVSE ((SEQ ID NO 3))), or scramble LC12-6 (AC-SVEMA (SEQ ID NO:5)) were administered s.c. 30 min prior to injection of 1 mg zymosan into the air-pouches. Control mice were treated with sterile PBS (100 μl s.c.)."}, "[2]": {"system": "A549 cell line", "details": "in vitro A549 model; previous publications (Croxtall et al., 1993, 1998); result in words; cited from earlier work"}}, "note": "Where no end group is shown, it is not given here."}
{"substance": "AC-SVEMA (SEQ ID NO:5) (Ac-SVEMA) [scrambled version of AMVSE, reference compound]", "values": [{"measurement": "activity in the in vivo animal model of inflammation", "setting": "[1]", "value": "inactive"}]}
{"substance": "Ac-AMVSE ((SEQ ID NO 3)) [LC12-6, N-acetylated lipocortin 1 fragment, residues 2-6]", "values": [{"measurement": "activity in the in vivo animal model of inflammation", "setting": "[1]", "value": "active"}, {"measurement": "Approximate ED50, inhibition of PMN migration", "setting": "[1]", "value": "~110", "unit": "nmol"}]}
{"substance": "Ac-AMVSEFLKQAW (SEQ ID NO:4) [LC12-12, N-acetylated lipocortin 1 fragment, residues 2-12]", "values": [{"measurement": "activity in the in vivo animal model of inflammation", "setting": "[1]", "value": "active"}, {"measurement": "Approximate ED50, inhibition of PMN migration", "setting": "[1]", "value": "~110", "unit": "nmol"}]}
{"substance": "Ac-AMVSEFLKQAWFIENEEQEYVQTVK (SEQ ID NO:6) [LC12-26, reference compound]", "values": [{"measurement": "Approximate ED50, inhibition of PMN migration", "setting": "[1]", "value": "~45", "unit": "nmol"}]}
{"substance": "EQEYVQTV (SEQ ID NO:2) [LC118-25, lipocortin 1 fragment, residues 18-25]", "values": [{"measurement": "inhibitory effect on A549 cell function", "setting": "[2]", "value": "significant inhibitory activity"}]}
